Experimental data from ChEMBL document CHEMBL1201862, “PubChem BioAssay data set” (2004).
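Values below derive from 48-hour exposures of cells grown in 96-well plates, with endpoints linearly interpolated between the two concentrations bracketing the appropriate inhibition level. At the GI50, growth is halved.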 The source made the active and inactive calls. No stated cut-off is given here; in the data, active = GI50 up to about 1.1 µM and inactive = higher.

Legend:
Experiment in all cases: inhibition of tumour cell growth, NCI panel, 48 h
786-0 = tested on: 786-0
CCRF-CEM = tested on: CCRF-CEM
HCT-15 = tested on: HCT-15
HOP-62 = tested on: HOP-62
KM12 = tested on: KM12
MOLT-4 = tested on: MOLT-4
Malme-3M = tested on: Malme-3M
NCI-H23 = tested on: NCI-H23
NCI-H522 = tested on: NCI-H522
SNB-19 = tested on: SNB-19
SW-620 = tested on: SW-620
TK-10 = tested on: TK-10
UACC-62 = tested on: UACC-62
UO-31 = tested on: UO-31
SF-268 = tested on: SF-268

For `COc1ccccc1-n1c(N)c2c(C)c(-c3ccccc3)[nH]c2nc1=S`, the GI50 (786-0) was > 100 µM (inactive), the GI50 (CCRF-CEM) was > 100 µM (inactive) and the GI50 (HCT-15) was greater than 100 µM. The GI50 (HOP-62) was > 100 µM (inactive), the GI50 (KM12) was > 100 µM (inactive) and the GI50 (MOLT-4) was > 100 µM (inactive). For the same compound, the GI50 (Malme-3M) was 91.8 µM (inactive), the GI50 (NCI-H23) was 79.4 µM (inactive) and the GI50 (NCI-H522) was > 100 µM (inactive). For the same compound, the GI50 (SNB-19) was > 100 µM (inactive), the GI50 (SW-620) was > 100 µM (inactive) and the GI50 (TK-10) was > 100 µM (inactive). For the same compound, the GI50 (UACC-62) was 77.1 µM (inactive) and the GI50 (UO-31) was > 100 µM (inactive).
For `C/C(CC(=O)Nc1ccc(Cl)c(Cl)c1)=N/NC(=O)C[N+](C)(C)C`, the GI50 (786-0) was 56.5 µM (inactive), the GI50 (CCRF-CEM) was > 100 µM (inactive) and the GI50 (HCT-15) was greater than 100 µM. For the same compound, the GI50 (HOP-62) was > 100 µM (inactive), the GI50 (KM12) was > 100 µM (inactive) and the GI50 (MOLT-4) was > 100 µM (inactive). The GI50 (Malme-3M) was > 100 µM (inactive), the GI50 (NCI-H23) was > 100 µM (inactive) and the GI50 (SF-268) was > 100 µM (inactive). The GI50 (SNB-19) was > 100 µM (inactive), the GI50 (TK-10) was > 100 µM (inactive) and the GI50 (UACC-62) was > 100 µM (inactive). The GI50 (UO-31) was > 100 µM (inactive).
With `CC1=C(C(=O)CC(=O)C(=O)NC2C3CC4CC(C3)CC2C4)Sc2ccccc2N1` (stereo unspecified) the GI50 (786-0) was > 100 µM (inactive), the GI50 (HCT-15) was greater than 71.4 µM and the GI50 (HOP-62) was > 100 µM (inactive). For the same compound, the GI50 (KM12) was > 86.3 µM (inactive), the GI50 (MOLT-4) was 4.43 µM (inactive) and the GI50 (Malme-3M) was > 100 µM (inactive). The GI50 (NCI-H23) was > 100 µM (inactive), the GI50 (NCI-H522) was 97.5 µM (inactive) and the GI50 (SF-268) was > 94.8 µM (inactive). For the same compound, the GI50 (SNB-19) was > 100 µM (inactive), the GI50 (SW-620) was > 100 µM (inactive) and the GI50 (TK-10) was > 100 µM (inactive). For the same compound, the GI50 (UACC-62) was > 100 µM (inactive) and the GI50 (UO-31) was > 60.3 µM (inactive).
In the case of `CCN(CC)C(=O)CC12CCCCC1=Nc1ccccc12` (stereo unspecified), the GI50 (786-0) is reported as > 100 µM (inactive), the GI50 (CCRF-CEM) is reported as > 100 µM (inactive) and the GI50 (HCT-15) is reported as greater than 100 µM. For the same compound, the GI50 (HOP-62) was > 100 µM (inactive), the GI50 (KM12) was > 100 µM (inactive) and the GI50 (MOLT-4) was > 100 µM (inactive). The GI50 (Malme-3M) was > 100 µM (inactive), the GI50 (NCI-H23) was > 100 µM (inactive) and the GI50 (SW-620) was > 100 µM (inactive). The GI50 (TK-10) was > 100 µM (inactive) and the GI50 (UACC-62) was > 100 µM (inactive).
With `Cc1ccc(S(=O)(=O)OCC23CCC(CC2)C2CC23)cc1` (stereo unspecified) the GI50 (786-0) was 61.2 µM (inactive), the GI50 (CCRF-CEM) was 39.7 µM (inactive) and the GI50 (HCT-15) was 47.6 µM. For the same compound, the GI50 (HOP-62) was 48.3 µM (inactive), the GI50 (MOLT-4) was 35.4 µM (inactive) and the GI50 (Malme-3M) was 48.8 µM (inactive). For the same compound, the GI50 (NCI-H23) was 38.3 µM (inactive), the GI50 (SF-268) was 37.5 µM (inactive) and the GI50 (SNB-19) was 96.6 µM (inactive). The GI50 (SW-620) was 87.1 µM (inactive), the GI50 (TK-10) was > 100 µM (inactive) and the GI50 (UACC-62) was > 100 µM (inactive). The GI50 (UO-31) was 34.4 µM (inactive).
For `COC(=O)C1C=CCON2CCc3c(n(C)c4ccccc34)C12` (stereo unspecified), the GI50 (786-0) was > 100 µM (inactive), the GI50 (CCRF-CEM) was > 100 µM (inactive) and the GI50 (HCT-15) was greater than 100 µM. The GI50 (HOP-62) was > 100 µM (inactive), the GI50 (KM12) was > 100 µM (inactive) and the GI50 (MOLT-4) was > 100 µM (inactive). The GI50 (Malme-3M) was > 100 µM (inactive), the GI50 (NCI-H23) was > 100 µM (inactive) and the GI50 (NCI-H522) was > 100 µM (inactive). The GI50 (SF-268) was > 100 µM (inactive), the GI50 (SNB-19) was > 100 µM (inactive) and the GI50 (SW-620) was > 100 µM (inactive). The GI50 (TK-10) was > 100 µM (inactive) and the GI50 (UO-31) was > 100 µM (inactive).
In the case of `CCc1cccc(C)c1NC(=O)CC1C(=O)Nc2ccccc2[S+]1[O-]` (stereo unspecified), the GI50 (786-0) is reported as 47.5 µM (inactive), the GI50 (HCT-15) is reported as 35.6 µM and the GI50 (HOP-62) is reported as 71.4 µM (inactive). The GI50 (KM12) was 54.2 µM (inactive), the GI50 (MOLT-4) was 37.1 µM (inactive) and the GI50 (Malme-3M) was 28.5 µM (inactive). The GI50 (NCI-H23) was 31.3 µM (inactive), the GI50 (NCI-H522) was 31.1 µM (inactive) and the GI50 (SF-268) was 42.2 µM (inactive). For the same compound, the GI50 (SNB-19) was 48.4 µM (inactive), the GI50 (SW-620) was 48.3 µM (inactive) and the GI50 (TK-10) was > 100 µM (inactive). The GI50 (UO-31) was 98.2 µM (inactive).
In the case of `O=C(O)C1=C(C(=O)Nc2ccc(NC(=O)C3=C(C(=O)O)C4C=CC3C4)cc2)C2C=CC1C2`, the GI50 (786-0) is reported as > 100 µM (inactive), the GI50 (CCRF-CEM) is reported as > 100 µM (inactive) and the GI50 (HCT-15) is reported as greater than 100 µM. For the same compound, the GI50 (HOP-62) was > 100 µM (inactive), the GI50 (KM12) was > 100 µM (inactive) and the GI50 (MOLT-4) was > 100 µM (inactive). For the same compound, the GI50 (Malme-3M) was > 100 µM (inactive), the GI50 (NCI-H23) was > 100 µM (inactive) and the GI50 (SF-268) was > 100 µM (inactive). The GI50 (SNB-19) was > 100 µM (inactive), the GI50 (SW-620) was > 100 µM (inactive) and the GI50 (TK-10) was > 100 µM (inactive). For the same compound, the GI50 (UACC-62) was > 100 µM (inactive) and the GI50 (UO-31) was > 100 µM (inactive).
